Among the data in US7399866B2, “Compounds, compositions, and methods” (Cytokinetics, Inc., priority 2003, dated 2008) are melting point values, retold here.

Structures are written as SMILES.

What is called melting point is the temperature, or range, at which the solid turns liquid. `CC(=O)N1CCC[C@@H](Oc2cc(F)cc(NC(=O)Nc3cccnc3)c2)C1` [Example 1, (R)-1-[3-(1-Acetyl-piperidin-3-yloxy)-5-fluoro-phenyl]-3-pyridin-3-yl-urea] had a melting point of 145 °C.
